Results reported in the C3SDB collision cross section collection.

conditions: [M+H-H2O]+; instrument: TW; calibrated with polyalanine and drug standards

First: CNc1ccccc1C(=O)N1CCc2c([nH]c3ccccc23)C1=O [RHETSININE]
Second: CC1(C)CC2C1CCC1(C)OC1CCC2(C)O (stereo not drawn) [2-HYDROXY-5 (6)EPOXY-TETRAHYDROCARYOPHYLLENE]
The “collision cross section (N2)” value of the first is higher: 166.5 Å² for the first, 150.8 Å² for the second.

same assay, conditions: [M+H]+; instrument: TW; calibrated with polyalanine and drug standards

First: O=C(O)c1ccccc1C(=O)Nc1ccc(S(=O)(=O)Nc2nccs2)cc1 [PHTHALYLSULFATHIAZOLE]
Second: Nc1ccc(S(=O)(=O)Nc2ncccn2)cc1 [SULFADIAZINE]
The “collision cross section (N2)” value of the first is higher: 194.9 Å² for the first, 150.9 Å² for the second.

Going from `CC(=O)Oc1cc(OC(C)=O)c2c(c1)O[C@H](c1ccc(OC(C)=O)c(OC(C)=O)c1)[C@H](OC(C)=O)C2` [EPICATECHIN PENTAACETATE] to `CCOC(=O)C1=C(C)NC(C)=C(C(=O)OC)C1c1cccc([N+](=O)[O-])c1` (stereo not drawn) [NITRENDIPINE], the “collision cross section (N2)” value falls from 207.3 Å² to 181.9 Å².

Compared with `CC(C)n1c(/C=C/[C@@H](O)C[C@@H](O)CC(=O)O)c(-c2ccc(F)cc2)c2ccccc21` [FLUVASTATIN], `O=C(O)CCc1nc(-c2ccccc2)c(-c2ccccc2)o1` [OXAPROZIN] is lower in “collision cross section (N2)” value: 200.6 Å² for the first, 169.7 Å² for the second.

Compared with `COc1cc(CNC(=O)CCCC/C=C/C(C)C)ccc1O` [CAPSAICIN], `CCCCOc1cc(CC2CNC(=O)N2)ccc1OC` (stereo not drawn) [4-(3-BUTOXY-4-METHOXYBENZYL)IMIDAZOLIDIN-2-ONE] is lower in “collision cross section (N2)” value: 181.6 Å² for the first, 174 Å² for the second.

Compared with `CO[C@H]1C[C@H](O[C@@H]2/C(C)=C/C[C@@H]3C[C@@H](C[C@]4(CC[C@H](C)[C@@H](C5CCCCC5)O4)O3)OC(=O)[C@@H]3C=C(C)/C(=N/O)[C@H]4OC/C(=C\C=C\[C@@H]2C)[C@]43O)O[C@@H](C)[C@@H]1O` [SELAMECTIN], `CC[C@H]1OC(=O)[C@H](C)[C@@H](O[C@H]2C[C@@](C)(OC)[C@@H](O)[C@H](C)O2)[C@H](C)[C@@H](O[C@@H]2O[C@H](C)C[C@H](N(C)C)[C@H]2O)[C@](C)(O)C[C@@H](C)CN(C)[C@H](C)[C@@H](O)[C@]1(C)O` [AZITHROMYCIN] is lower in “collision cross section (N2)” value: 293.2 Å² for the first, 263.5 Å² for the second.

Going from `CCCCCCCCCCOc1cc2c(=O)c(C(=O)OCC)c[nH]c2cc1OCC` [DECOQUINATE] to `CCCCCCCCCCC[C@@H](C[C@@H]1OC(=O)[C@H]1CCCCCC)OC(=O)[C@H](CC(C)C)NC=O` [ORLISTAT], the “collision cross section (N2)” value rises from 216.2 Å² to 241.2 Å².

Going from `O=c1cc(-c2ccc(O)cc2)oc2cc(O)cc(O)c12` [APIGENIN] to `COc1ccc(-c2cc(=O)c3c(O)cc(O)cc3o2)cc1O` [DIOSMETIN], the “collision cross section (N2)” value rises from 156 Å² to 164.8 Å².

First: CC(C)=CCCC1(C)C=Cc2c(O)c3c(c(CC=C(C)C)c2O1)OC12C(CC4CC1C(C)(C)OC2(C/C=C(/C)C(=O)O)C4O)C3=O (stereo not drawn) [TETRAHYDROGAMBOGIC ACID]
Second: C=C1C2CC[C@@]3(C)[C@H](c4ccoc4)OC(=O)C[C@]13O[C@H]1CC(=O)C(C)(C)[C@H](C(O)C(=O)OC)[C@@]21C (stereo partly drawn) [6-HYDROXYANGOLENSIC ACID METHYL ESTER]
The “collision cross section (N2)” value of the first is higher: 246.4 Å² for the first, 207.6 Å² for the second.

Going from `CCC(=O)OCC(=O)[C@@]1(OC(=O)CC)[C@@H](C)C[C@H]2[C@@H]3CCC4=CC(=O)C=C[C@]4(C)[C@@]3(F)[C@@H](O)C[C@@]21C` [BETAMETHASONE 17,21-DIPROPIONATE] to `C[C@]12C=CC(=O)C=C1CC[C@@H]1[C@@H]2CC[C@]2(C)C(=O)CC[C@@H]12` [ANDROSTA-1,4-DIEN-3,17-DIONE], the “collision cross section (N2)” value falls from 218.1 Å² to 168.4 Å².

Compared with `O=C1c2ccccc2C(=O)C1c1ccccc1` [PHENINDIONE], `NC(=O)N1c2ccccc2CC(=O)c2ccccc21` [OXCARBAZEPINE] is higher in “collision cross section (N2)” value: 145.9 Å² for the first, 152.7 Å² for the second.

Going from `Cc1occc(=O)c1O` [LARIXINIC ACID] to `Cc1cc(O)cc(=O)o1` [4-HYDROXY-6-METHYLPYRAN-2-ONE], the “collision cross section (N2)” value rises from 117.7 Å² to 119.8 Å².

Compared with `O=C1C[C@@H]2OCC=C3CN4CC[C@]56c7ccccc7N1[C@H]5[C@H]2[C@H]3C[C@H]46` [STRYCHNINE], `CC(=O)O[C@@H]1CC(=O)[C@@]2(C)C(CC(=O)[C@]3(C)C2CC[C@@]2(C)[C@H](c4ccoc4)OC(=O)C4OC423)C1(C)C` (stereo partly drawn) [1,7-DIDEACETOXY-1,7-DIOXOKHIVORIN] is higher in “collision cross section (N2)” value: 172.2 Å² for the first, 210.9 Å² for the second.

Compared with `C=Cc1c(C)c2cc3[nH]c(cc4nc(cc5nc(cc1[nH]2)C(C)=C5CCC(=O)O)C(CCC(=O)O)=C4C)c(C)c3C=C` [PROTOPORPHYRIN IX], `O=C(/C=C/c1ccc(O)c(O)c1)O[C@H](Cc1ccc(O)c(O)c1)C(=O)O` [ROSMARINIC ACID] is lower in “collision cross section (N2)” value: 238.8 Å² for the first, 169.2 Å² for the second.

Going from `O=C(O)[C@H](O)[C@@H](O)[C@H](O[C@@H]1O[C@H](CO)[C@H](O)[C@H](O)[C@H]1O)[C@H](O)CO` [LACTOBIONIC ACID] to `NC(=O)c1ncn([C@@H]2O[C@H](CO)[C@@H](O)[C@H]2O)c1N` [ACADESINE], the “collision cross section (N2)” value falls from 168.7 Å² to 153 Å².

Going from `Oc1cccc2cccnc12` [8-HYDROXYQUINOLINE] to `Oc1c(Br)cc(Br)c2cccnc12` [BROXYQUINOLINE], the “collision cross section (N2)” value rises from 123.6 Å² to 137.7 Å².

Going from `CC(=O)Oc1c(C)cccc1C(=O)O` [CRESOPIRINE] to `CCn1cc(C(=O)O)c(=O)c2ccc(C)nc21` [NALIDIXIC ACID], the “collision cross section (N2)” value rises from 129.1 Å² to 145.3 Å².

First: C[C@]12CC[C@H]3[C@@H](CCC4=CC(=O)CC[C@@]43C)[C@@H]1CC[C@H]2O [EPITESTOSTERONE]
Second: C/C=C(/C)C(=O)O[C@H]1CC[C@@]2(C)[C@@H]3CC[C@H]4[C@]5(O)C[C@H](O)[C@@]6(O)[C@@H](CN7C[C@@H](C)CC[C@H]7[C@@]6(C)O)[C@]5(O)C[C@@]42O[C@]13O [CEVADINE]
The “collision cross section (N2)” value of the first is lower: 170.7 Å² for the first, 237.2 Å² for the second.

First: COc1c(C)c2c(c(O)c1C/C=C(\C)CCC(=O)OCCN1CCOCC1)C(=O)OC2 [MYCOPHENOLATE MOFETIL]
Second: CC1CCc2cc(F)cc3c(=O)c(C(=O)O)cn1c23 (stereo not drawn) [FLUMEQUINE]
The “collision cross section (N2)” value of the first is higher: 197.3 Å² for the first, 149.8 Å² for the second.

First: CCOc1ccc(C(=O)c2ccc(OC)c(O)c2O)cc1 [2,3-DIHYDROXY-4-METHOXY-4'-ETHOXYBENZOPHENONE]
Second: COc1c2ccoc2nc2c(OC)c(OCC(O)C(C)(C)O)ccc12 (stereo not drawn) [EVOXINE]
The “collision cross section (N2)” value of the first is lower: 164 Å² for the first, 181.4 Å² for the second.

First: O=C1C=C2CC3(O)COc4c(ccc(O)c4O)C3=C2C=C1O (stereo not drawn) [HEMATEIN]
Second: CCC(=O)c1c(O)cc(O)cc1O [FLOPROPIONE]
The “collision cross section (N2)” value of the first is higher: 162.5 Å² for the first, 134.3 Å² for the second.

First: CCN(CC)CCNC(=O)c1cc(Br)c(N)cc1OC [BROMOPRIDE]
Second: CCCOc1ccc2nc(NC(=O)OC)[nH]c2c1 [OXIBENDAZOLE]
The “collision cross section (N2)” value of the first is higher: 173.6 Å² for the first, 157.5 Å² for the second.

First: CCCCCCCCCc1ccc(OCCOCCOCCOCCOCCOCCOCCOCCOCCO)cc1 [NONOXYNOL-9]
Second: CCCCCCCCNC(C)C(O)c1ccc(SC(C)C)cc1 (stereo not drawn) [SULOCTIDIL]
The “collision cross section (N2)” value of the first is higher: 245.8 Å² for the first, 197.3 Å² for the second.

Going from `O=C(CCCN1CCC(O)(c2ccc(Br)cc2)CC1)c1ccc(F)cc1` [BROMPERIDOL] to `COC(=O)Nc1nc2ccc(S(=O)c3ccccc3)cc2[nH]1` (stereo not drawn) [OXFENDAZOLE], the “collision cross section (N2)” value falls from 194.9 Å² to 174.1 Å².

Compared with `CC(C)(C)NCC(O)c1ccc(O)c(CO)c1` (stereo not drawn) [ALBUTEROL], `CS(=O)(=O)c1ccc([C@@H](O)[C@@H](CO)NC(=O)C(Cl)Cl)cc1` [THIAMPHENICOL] is higher in “collision cross section (N2)” value: 158.4 Å² for the first, 170.7 Å² for the second.

First: NNC(=O)c1ccncc1 [ISONIAZID]
Second: Cc1ncc(CNC(=O)N(CCCl)N=O)c(N)n1 [NIMUSTINE]
The “collision cross section (N2)” value of the first is lower: 125.6 Å² for the first, 158.9 Å² for the second.

Compared with `CC(C)(O/N=C(\C(=O)N[C@@H]1C(=O)N2C(C(=O)[O-])=C(C[n+]3ccccc3)CS[C@H]12)c1csc(N)n1)C(=O)O` [CEFTAZIDIME], `Cc1ncc(C[n+]2csc(CCO)c2C)c(N)n1` [THIAMINE] is lower in “collision cross section (N2)” value: 218.2 Å² for the first, 155.9 Å² for the second.

First: CCCCS(=N)(=O)CC[C@H](N)C(=O)O (stereo partly drawn) [L-BUTHIONINE SULFOXIMINE]
Second: CN1[C@H]2CC(=O)C[C@@H]1C(O)C2 (stereo partly drawn) [6-HYDROXYTROPINONE]
The “collision cross section (N2)” value of the first is higher: 146.1 Å² for the first, 131.6 Å² for the second.

Compared with `Nc1nc(=O)c2[nH]c(=O)cnc2[nH]1` [XANTHOPTERIN], `C[C@@H]1CN(c2c(F)c(F)c3c(=O)c(C(=O)O)cn(C4CC4)c3c2F)C[C@H](C)N1` [ORBIFLOXACIN] is higher in “collision cross section (N2)” value: 131.1 Å² for the first, 196.7 Å² for the second.

First: Cc1cccc(N(C)C(=S)Oc2ccc3ccccc3c2)c1 [TOLNAFTATE]
Second: COc1ccc2c(c1)=NC1=C(C)NCCC=21 [HARMALINE]
The “collision cross section (N2)” value of the first is higher: 173.6 Å² for the first, 146.2 Å² for the second.

Compared with `COc1ccc(-c2cc(=O)c3c(O)cc(O[C@@H]4O[C@H](CO[C@@H]5O[C@@H](C)[C@H](O)[C@@H](O)[C@H]5O)[C@@H](O)[C@H](O)[C@H]4O)cc3o2)cc1O` [DIOSMIN], `Cc1cc2c(cc1S(N)(=O)=O)S(=O)(=O)CCC2` [METICRANE] is lower in “collision cross section (N2)” value: 242.5 Å² for the first, 159.4 Å² for the second.

With `C1N2CN3CN1CN(C2)C3` [METHENAMINE] the “collision cross section (N2)” value was 126.8 Å².

same assay, conditions: [M+Na]+; instrument: TW; calibrated with polyalanine and drug standards

First: CC1(C)O[C@@H]2[C@@H](CO[C@@]3(COS(N)(=O)=O)OC(C)(C)O[C@@H]23)O1 [TOPIRAMATE]
Second: C[C@@H]1CC[C@H]2[C@@H](C)C(=O)O[C@@H]3O[C@@]4(C)CC[C@@H]1[C@]32OO4 [ARTEMISININ]
The “collision cross section (N2)” value of the first is higher: 170.1 Å² for the first, 168.1 Å² for the second.

Compared with `O=C(O)CCCCCCCC(O)C(O)CCCCCCO` (stereo not drawn) [ALEURETIC ACID], `CCCCCCCCCCCCCCCCC(C(=O)O)C(O)(CC(=O)O)C(=O)O` (stereo not drawn) [AGARIC ACID] is higher in “collision cross section (N2)” value: 175.9 Å² for the first, 213.1 Å² for the second.

With `CC(=O)N[C@@H](CCC(=O)O)C(=O)O` [ACETYLGLUTAMIC ACID] the “collision cross section (N2)” value was 141.7 Å².
